≈ marks a conversion by molar mass, not a printed value.
Legend:
[1] = test system: Bacillus subtilis PCI 219; assay: Antibacterial spectrum, standard serial dilution method in liquid medium; format: cell-based; details: PCI219, bacto-yeast nitrogen base-glucose-NZ-amine liquid medium, read-out: Minimum growth inhibitory concentration
Method: (§1) The antibacterial spectra of a bispolide A compound and a bispolide B compound were tested on a liquid medium consisting of bacto-yeast nitrogen base (a product of Difco Laboratories)-glucose-NZ-amine by a standard serial dilution method.

[2] = test system: Staphylococcus aureus FDA209P; assay: as above; format: cell-based; details: bacto-yeast nitrogen base-glucose-NZ-amine liquid medium, read-out: Minimum growth inhibitory concentration
Method: as §1

[3] = test system: MRSA ngs1 (methicillin-resistant strain of Staphylococcus aureus); assay: as above; format: cell-based; details: bacto-yeast nitrogen base-glucose-NZ-amine liquid medium, read-out: Minimum growth inhibitory concentration
Method: as §1

[4] = test system: MRSA ngs2 (methicillin-resistant strain of Staphylococcus aureus); assay: as above; format: cell-based; details: bacto-yeast nitrogen base-glucose-NZ-amine liquid medium, read-out: Minimum growth inhibitory concentration
Method: as §1

[5] = Solubility (physicochemical properties)
[6] = in 50% aqueous ethanol (ethanol:water 1:1 by volume)
[7] = in methanol, ethanol, dimethylsulfoxide (DMSO), acetone and ethyl acetate

Row | SMILES | MIC [1] [µg/mL] | MIC [2] [µg/mL] | MIC [3] [µg/mL] | MIC [4] [µg/mL] | Solubility [5, 6] | Solubility [5, 7] | Solubility ([5]; in water and n-hexane)
1 | CCC1=C\C=C\C(CC)C(C(C)C(O)CC2(OC)CC(OC3CC(O)C(O)C(C)O3)C(CC)C(C)O2)OC(=O)/C=C/C(CC)=C/C=C/C(CC)C(C(C)C(O)CC2(O)CC(OC3CC(O)C(O)C(C)O3)C(CC)C(C)O2)OC(=O)\C=C\1 (stereo not shown) [bispolide A2] | 0.78 (≈ 0.68 µM) | 1.56 (≈ 1.36 µM) | 1.56 (≈ 1.36 µM) | 3.13 (≈ 2.73 µM) | sparlingly soluble | Soluble well | insoluble
2 | CCC1=C\C=C\C(CC)C(C(C)C(O)CC2(OC)CC(OC3OC(C)C(O)C(O)C3O)C(CC)C(C)O2)OC(=O)/C=C/C(CC)=C/C=C/C(CC)C(C(C)C(O)CC2(O)CC(OC3CC(O)C(O)C(C)O3)C(CC)C(C)O2)OC(=O)\C=C\1 (stereo not shown) [bispolide B2b] | 0.39 (≈ 0.335 µM) | 0.78 (≈ 0.67 µM) | 1.56 (≈ 1.34 µM) | 3.13 (≈ 2.69 µM) | sparingly soluble | Soluble well | insoluble
3 | CCC1=C\C=C\C(CC)C(C(C)C(O)CC2(O)CC(OC3CC(O)C(O)C(C)O3)C(CC)C(C)O2)OC(=O)/C=C/C(CC)=C/C=C/C(CC)C(C(C)C(O)CC2(O)CC(OC3CC(O)C(O)C(C)O3)C(CC)C(C)O2)OC(=O)\C=C\1 (stereo not shown) [bispolide A1] | 0.39 (≈ 0.344 µM) | 1.56 (≈ 1.38 µM) | 12.5 (≈ 11 µM) | ≤ 0.049 | sparlingly soluble | Soluble well | insoluble
4 | CCC1=C\C=C\C(CC)C(C(C)C(O)CC2(O)CC(OC3OC(C)C(O)C(O)C3O)C(CC)C(C)O2)OC(=O)/C=C/C(CC)=C/C=C/C(CC)C(C(C)C(O)CC2(O)CC(OC3CC(O)C(O)C(C)O3)C(CC)C(C)O2)OC(=O)\C=C\1 (stereo not shown) [bispolide B1] | 0.2 (≈ 0.174 µM) | 1.56 (≈ 1.36 µM) | 0.39 (≈ 0.339 µM) | ≤ 0.049 | sparingly soluble | Soluble well | insoluble
5 | CCC1=C\C=C\C(CC)C(C(C)C(O)CC2(OC)CC(OC3OC(C)C(O)C(O)C3O)C(CC)C(C)O2)OC(=O)/C=C/C(CC)=C/C=C/C(CC)C(C(C)C(O)CC2(OC)CC(OC3CC(O)C(O)C(C)O3)C(CC)C(C)O2)OC(=O)\C=C\1 (stereo not shown) [bispolide B3] | 0.78 (≈ 0.662 µM) | 1.56 (≈ 1.32 µM) | 1.56 (≈ 1.32 µM) | 3.13 (≈ 2.66 µM) | sparingly soluble | Soluble well | insoluble
6 | CCC1=C\C=C\C(CC)C(C(C)C(O)CC2(OC)CC(OC3CC(O)C(O)C(C)O3)C(CC)C(C)O2)OC(=O)/C=C/C(CC)=C/C=C/C(CC)C(C(C)C(O)CC2(OC)CC(OC3CC(O)C(O)C(C)O3)C(CC)C(C)O2)OC(=O)\C=C\1 (stereo not shown) [bispolide A3] | 0.78 (≈ 0.672 µM) | 1.56 (≈ 1.34 µM) | 1.56 (≈ 1.34 µM) | 3.13 (≈ 2.69 µM) | sparlingly soluble | Soluble well | insoluble
7 | CCC1=C\C=C\C(CC)C(C(C)C(O)CC2(OC)CC(OC3CC(O)C(O)C(C)O3)C(CC)C(C)O2)OC(=O)/C=C/C(CC)=C/C=C/C(CC)C(C(C)C(O)CC2(O)CC(OC3OC(C)C(O)C(O)C3O)C(CC)C(C)O2)OC(=O)\C=C\1 (stereo not shown) [bispolide B2a] | 0.39 (≈ 0.335 µM) | 1.56 (≈ 1.34 µM) | 1.56 (≈ 1.34 µM) | 1.56 (≈ 1.34 µM) | sparingly soluble | Soluble well | insoluble

From patent publication US8318684B2, “Antibiotics, bispolides A1, A2, and A3 as well as bispolides B1, B2a, B2b and B3 and processes for producing said antibiotics” (Nimura Genetic Solutions Co., Ltd., priority 2006, dated 2012)
